In ChEMBL document CHEMBL1201862, “PubChem BioAssay data set” (2004):
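Five concentrations, 48 hours, 96-well plates. The concentration for 50% growth inhibition is given as GI50.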 Activity calls are given as the source filed them. Rule as the data show it: active = GI50 up to about 1.1 µM and inactive = higher.

Key:
Experiment in all cases: NCI anticancer screen, dose series, 48 h
HCT-15 = tested on: HCT-15
HOP-62 = tested on: HOP-62
PC-3 = tested on: PC-3
SK-MEL-2 = tested on: SK-MEL-2
SN12C = tested on: SN12C
MDA-MB-231 = tested on: MDA-MB-231
NCI-H460 = tested on: NCI-H460
786-0 = tested on: 786-0
SK-OV-3 = tested on: SK-OV-3
NCI-H23 = tested on: NCI-H23
MOLT-4 = tested on: MOLT-4
ACHN = tested on: ACHN
M14 = tested on: M14
RXF 393 = tested on: RXF 393
SNB-75 = tested on: SNB-75
DU-145 = tested on: DU-145
OVCAR-8 = tested on: OVCAR-8
A498 = tested on: A498
CCRF-CEM = tested on: CCRF-CEM
SF-268 = tested on: SF-268

| SMILES | GI50 (HCT-15) [µM] | GI50 (HOP-62) | GI50 (PC-3) | GI50 (SK-MEL-2) | GI50 (SN12C) | GI50 (MDA-MB-231) | GI50 (NCI-H460) | GI50 (786-0) | GI50 (SK-OV-3) | GI50 (NCI-H23) | GI50 (MOLT-4) | GI50 (ACHN) | GI50 (M14) | GI50 (RXF 393) | GI50 (SNB-75) | GI50 (DU-145) | GI50 (OVCAR-8) | GI50 (A498) | GI50 (CCRF-CEM) | GI50 (SF-268) |
| --- | --- | --- | --- | --- | --- | --- | --- | --- | --- | --- | --- | --- | --- | --- | --- | --- | --- | --- | --- | --- |
| CC1=CCC[C@H]2[C@](C)(CC3=CC(=O)C(SCC(C)C)=CC3=O)[C@@H](C)CC[C@]12C | 15.1 | 14.6 µM (inactive) | 15 µM (inactive) | 15.9 µM (inactive) | 24.9 µM (inactive) | 24.6 µM (inactive) | 14.6 µM (inactive) | 14 µM (inactive) | 19.5 µM (inactive) | 8.99 µM (inactive) | 1.53 µM (inactive) | 15.6 µM (inactive) | 18.2 µM (inactive) | 9.68 µM (inactive) | 10.9 µM (inactive) | 14.7 µM (inactive) | 13.3 µM (inactive) | 18.8 µM (inactive) | 1.79 µM (inactive) | – |
| Clc1ccccc1NN(Cc1ccncc1)c1ccccc1Cl | 16.3 | 15.8 µM (inactive) | 15 µM (inactive) | 14.4 µM (inactive) | 13.6 µM (inactive) | 13.6 µM (inactive) | – | 13.7 µM (inactive) | 28.1 µM (inactive) | 15.6 µM (inactive) | 15.5 µM (inactive) | 16.6 µM (inactive) | 17.7 µM (inactive) | 16 µM (inactive) | 17.5 µM (inactive) | 17.5 µM (inactive) | 13.8 µM (inactive) | 19.1 µM (inactive) | – | 18.1 µM (inactive) |
| Cc1cc2c(cc1Cl)Sc1nnc(C)n1S2(=O)=O | 11.2 | 20 µM (inactive) | 15 µM (inactive) | – | 14.8 µM (inactive) | 11.7 µM (inactive) | 23.7 µM (inactive) | 16.1 µM (inactive) | 26.6 µM (inactive) | 12.9 µM (inactive) | 14.4 µM (inactive) | 11.9 µM (inactive) | 14 µM (inactive) | 17.6 µM (inactive) | 13.3 µM (inactive) | 22 µM (inactive) | 17.5 µM (inactive) | 14.8 µM (inactive) | 8.53 µM (inactive) | 14.9 µM (inactive) |
| COC1(CC[C@@H](C)COC2OC(CO)C(O)C(O)C2O)OC2C[C@H]3[C@@H]4CC[C@H]5C[C@@H](OC6OC(CO)C(OC7OC(CO)C(O)C(O)C7O)C(O)C6OC6OC(C)C(O)C(O)C6O)[C@H](O)C[C@]5(C)[C@H]4CC[C@]3(C)C2[C@@H]1C (stereo partly specified) | – | 1.89 µM (inactive) | 1.87 µM (inactive) | 2.12 µM (inactive) | 1.86 µM (inactive) | 1.95 µM (inactive) | 3.08 µM (inactive) | 2.02 µM (inactive) | 1.87 µM (inactive) | – | 2.58 µM (inactive) | 1.77 µM (inactive) | 1.84 µM (inactive) | 2.04 µM (inactive) | 1.77 µM (inactive) | 2.01 µM (inactive) | 1.99 µM (inactive) | 1.81 µM (inactive) | 1.88 µM (inactive) | 2.07 µM (inactive) |
| Cn1/c(=N\S(=O)(=O)c2ccccc2)n(S(=O)(=O)c2ccccc2)c2ccccc21 | > 100 | 38.8 µM (inactive) | 29.5 µM (inactive) | 34.4 µM (inactive) | 87.3 µM (inactive) | > 100 µM (inactive) | – | 88.5 µM (inactive) | > 100 µM (inactive) | 61 µM (inactive) | 42.9 µM (inactive) | 34.5 µM (inactive) | 53.7 µM (inactive) | 95.5 µM (inactive) | 54.7 µM (inactive) | 72.8 µM (inactive) | 56.1 µM (inactive) | 78.7 µM (inactive) | 24.7 µM (inactive) | 54.1 µM (inactive) |
| Nc1nc(Cl)c(CO)c(NCC2(CO)CCC2)n1 | > 100 | > 100 µM (inactive) | 88.7 µM (inactive) | – | > 100 µM (inactive) | > 100 µM (inactive) | > 100 µM (inactive) | > 100 µM (inactive) | – | 41.9 µM (inactive) | > 100 µM (inactive) | > 100 µM (inactive) | – | > 100 µM (inactive) | > 100 µM (inactive) | > 100 µM (inactive) | > 100 µM (inactive) | > 100 µM (inactive) | > 100 µM (inactive) | > 100 µM (inactive) |
| C=CCO[C@]1(CC=C)C(=O)C(=O)OC1C1COC(C)(C)O1 (stereo partly specified) | 21.1 | > 100 µM (inactive) | 44.6 µM (inactive) | – | 34.4 µM (inactive) | 41.6 µM (inactive) | 65.2 µM (inactive) | 35.1 µM (inactive) | – | 53.2 µM (inactive) | 31.8 µM (inactive) | 16.6 µM (inactive) | – | 19.8 µM (inactive) | 27.7 µM (inactive) | > 100 µM (inactive) | 29.2 µM (inactive) | > 100 µM (inactive) | 29.4 µM (inactive) | 26.6 µM (inactive) |
| C=CC[C@@H]1C(=O)[C@@]2(O[Si](C(C)C)(C(C)C)C(C)C)CC[C@@H]1C[C@H]2NC(=O)OCC(Cl)(Cl)Cl | 91.6 | > 100 µM (inactive) | 32.9 µM (inactive) | 60 µM (inactive) | 45.3 µM (inactive) | > 10 µM (inactive) | 35.5 µM (inactive) | 77.1 µM (inactive) | > 100 µM (inactive) | > 100 µM (inactive) | > 100 µM (inactive) | 73.8 µM (inactive) | > 100 µM (inactive) | – | > 100 µM (inactive) | > 100 µM (inactive) | > 100 µM (inactive) | > 100 µM (inactive) | 60 µM (inactive) | > 100 µM (inactive) |
